Eleven molecules from PubChem BioAssay AID274 (DTP/NCI, 2004) can be followed below.

Inconclusive results and toxic doses are left out.

In this experiment the test system is BDF1 mice, Lewis lung carcinoma iv, survival T/C. Description: NCI In Vivo Anticancer Drug Screen. Data for tumor model Lewis Lung Carcinoma (intravenous) in B6D2F1 (BDF1) mice. The conditions noted are these: schedule: Q01DX009 (ip), higher = longer survival. Here is the method:
The antitumor activity of compounds was measured in mice bearing transplantable tumors. Survival or tumor size were measured and the results are expressed as the measurement made in the treated group (T) divided by the measurement made in the vehicle treated control group (C). The tumor model used in this assay is Lewis Lung Carcinoma (intravenous) in B6D2F1 (BDF1) mice

Setting [1] is: endpoint: median survival time, dose: 50.0 mg/kg/injection, vehicle: saline.
The mark [2] stands for this setting: endpoint: median survival time, dose: 100.0 mg/kg/injection, vehicle: saline.
Setting [3] is: endpoint: median survival time, dose: 25.0 mg/kg/injection, vehicle: Klucel (hydroxypropylcellulose) (HPC).
Where [4] appears, read: endpoint: median survival time, dose: 50.0 mg/kg/injection, vehicle: Klucel (hydroxypropylcellulose) (HPC).

As to `C=C1C(=O)OC2C3OC(C)(CCC(O)C3COC(C)=O)CC(OC(=O)/C(=C/C)COC(C)=O)C12` (configuration not stated), the T/C by setting is: (endpoint: median survival time, dose: 0.75 mg/kg/injection, vehicle: suspension in saline) 112 % of control; (endpoint: median survival time, dose: 1.5 mg/kg/injection, vehicle: suspension in saline) 103 % of control; (endpoint: median survival time, dose: 3.0 mg/kg/injection, vehicle: suspension in saline) 89 % of control.

On to `Nc1ccn([C@@H](C=O)O[C@@H](C=O)CO)c(=O)n1`, for which the T/C is, setting by setting: (endpoint: median survival time, dose: 6.25 mg/kg/injection, vehicle: saline) 96 % of control; (endpoint: median survival time, dose: 12.5 mg/kg/injection, vehicle: saline) 105 % of control; (endpoint: median survival time, dose: 25.0 mg/kg/injection, vehicle: saline) 100 % of control; under setting [1], 96 % of control; under setting [2], 97 % of control.

Take `CC1CCC2(OC1)OC1CC3C4CCC5CC(O)CCC5(C)C4CCC3(C)C1C2C` (configuration not stated): the T/C (endpoint: median survival time, dose: 20.0 mg/kg/injection, vehicle: Klucel (hydroxypropylcellulose) (HPC)) was 91 % of control.

`COC1NC(=O)NC(=O)C1=[N+]=[N-]` (configuration not stated): the T/C runs as follows: (endpoint: median survival time, dose: 2.0 mg/kg/injection, vehicle: water) 96 % of control; (endpoint: median survival time, dose: 4.0 mg/kg/injection, vehicle: water) 98 % of control; (endpoint: median survival time, dose: 8.0 mg/kg/injection, vehicle: water) 100 % of control.

With `CCCCCCCCCCCC(c1ccccc1)[N+](C)(C)C` (configuration not stated), the T/C is, setting by setting: (endpoint: median survival time, dose: 1.0 mg/kg/injection, vehicle: saline) 96 % of control; (endpoint: median survival time, dose: 2.0 mg/kg/injection, vehicle: saline) 105 % of control; (endpoint: median survival time, dose: 4.0 mg/kg/injection, vehicle: saline) 101 % of control.

With `CCOC(C)C(/C=N/NC(N)=S)=NNC(N)=S` (configuration not stated), the T/C (endpoint: median survival time, dose: 12.5 mg/kg/injection, vehicle: saline with Tween-80) was 157 % of control; the T/C (endpoint: median survival time, dose: 25.0 mg/kg/injection, vehicle: saline with Tween-80) is 95 % of control; the T/C (endpoint: median survival time, dose: 50.0 mg/kg/injection, vehicle: saline with Tween-80) is 104 % of control; the T/C (endpoint: median survival time, dose: 200.0 mg/kg/injection, vehicle: saline with Tween-80) was 114 % of control.

Consider `Nc1cc2[nH]cnc2c(=O)[nH]1`, for which the T/C is 118 % of control (endpoint: mean survival time, dose: 95.0 mg/kg/injection, vehicle: Klucel (hydroxypropylcellulose) (HPC)) and 90 % of control (endpoint: mean survival time, dose: 140.0 mg/kg/injection, vehicle: Klucel (hydroxypropylcellulose) (HPC)).

As for `c1cc2n(n1)CCN2`, the T/C was 105 % of control under setting [1]; 104 % of control under setting [2]; 86 % of control (endpoint: median survival time, dose: 200.0 mg/kg/injection, vehicle: saline).

With `Cc1cc(N(CCOS(C)(=O)=O)CCOS(C)(=O)=O)ccc1C=Nc1ccc(-c2nc(Cc3ccccc3)sc2C)cc1`, the T/C runs as follows: under setting [3], 117 % of control; under setting [4], 87 % of control.

Regarding `C/C=C(\C)c1cc(=O)c2c(C)cc3c(c2o1)C(=O)c1c(O)c(C2CC(C)(N(C)C)C(OC(C)=O)C(C)O2)cc(C2CC(N(C)C)C(O)C(C)O2)c1C3=O` (configuration not stated), the T/C is 104 % of control (endpoint: median survival time, dose: 0.15 mg/kg/injection, vehicle: saline); 101 % of control (endpoint: median survival time, dose: 0.31 mg/kg/injection, vehicle: saline); 107 % of control (endpoint: median survival time, dose: 0.62 mg/kg/injection, vehicle: saline); 98 % of control (endpoint: median survival time, dose: 1.25 mg/kg/injection, vehicle: saline); 103 % of control (endpoint: median survival time, dose: 2.5 mg/kg/injection, vehicle: saline); 119 % of control (endpoint: median survival time, dose: 5.0 mg/kg/injection, vehicle: saline).

For `COc1cc(C)c(C2NC(=O)c3ccccc3N2)cc1C` (configuration not stated), the T/C was 105 % of control under setting [3]; 97 % of control under setting [4]; 92 % of control (endpoint: median survival time, dose: 100.0 mg/kg/injection, vehicle: Klucel (hydroxypropylcellulose) (HPC)); 97 % of control (endpoint: median survival time, dose: 200.0 mg/kg/injection, vehicle: Klucel (hydroxypropylcellulose) (HPC)); 101 % of control (endpoint: median survival time, dose: 400.0 mg/kg/injection, vehicle: Klucel (hydroxypropylcellulose) (HPC)).
